Laboratory results from US8273768B2, “Iso CA-4 and analogues thereof as potent cytotoxic agents inhibiting tubuline polymerization” (Centre National de la Recherche Scientifique (CNRS), priority 2007, dated 2012).

Legend:
B16F10 = experiment: Study of cytotoxicity (CellTiter-Blue, 72 hours); type: cell-based, human; conditions: Mus musculus, B16-F10; 72 hours of incubation; read-out: IC50 for different cell lines: B16F10
Experimental: The biological activity of the compounds of the invention was studied in vitro on 7 human cancer cell lines with different tissue origins (HCT116: colorectal carcinoma; K562: chronic myeloid leukemia; B16-F10: melanoma; U87: glioblastoma; A549: lung cancer and MDA-MB 231 and MDA-MB 435: breast cancer). The cells selected for the study were incubated at 37° C. in the presence of one of the compounds added into the culture medium at different concentrations. The whole of the conducted experiments allowed determination of the toxicity level of the tested compound, its effect on the course of the cell cycle as well as its capacity of inducing cell death by apoptosis.
The cancer cell lines originate from the American Type Culture Collection (Rockville, Md., USA) and were grown according to the recommendations of the supplier.
The cells A549, U87, MDA-MB231, MDA-MB435 and B16F10 were grown in a culture medium “Dulbecco minimal essential medium” (DMEM) containing 4.5 g/L of glucose and supplemented with 10% fetal calf serum and 1% glutamine. […] Cell viability was evaluated by using the reagent “CellTiter-Blue™” (Promega, Wis., USA) while observing the instructions of the manufacturer. […] After 2 hours of incubation, the emitted fluorescence was measured at 590 nm after excitation at 560 nm by means of a fluorescence reader of the Victor type (Perkin-Elmer, USA). […]

[1] = Cytotoxicity on human endothelial cells; type: cell-based; conditions: human; EAhy926, measured after 72 hours; read-out: IC50, cytotoxic activity on EAhy926 (FIG. 4 legend)
Experimental: (§1) Cytotoxicity of compound (I-1) towards human endothelial cells (EAhy926) was evaluated after 1 hour, 3 hours and 6 hours of treatment. The number of living cells was either counted immediately at the end of the treatment (FIG. 3) or 72 hours after stopping the treatment (FIG. 4). It is observed that when the endothelial cells are treated for 72 hours with the compound (I-1), the IC50 is 2 nM.
(§2) The EAhy926 cells (immortalized HUVEC macrovascular endothelial cells) were cultivated in a culture medium “Dulbecco minimal essential medium” (DMEM) containing 4.5 g/L of glucose and supplemented with 10% fetal calf serum, 1% glutamine and a supplement of HAT (100 μM of hypoxanthine, 0.4 μM of aminopterin and 16 μM of thymidine, Invitrogen; Cergy-Pontoise, France). The cells were maintained in the culture at 37° C. in a humid atmosphere containing 5% CO2.
(§3) The cells were sown in 96-well culture plates in an amount of 3,000 cells per well in 50 μL of culture medium. […] At the end of the treatment, the number of cells was evaluated by using the reagent “CellTiter-Blue™” (Promega, Wis., USA) as described earlier. In parallel, after 1 hour, 3 hours or 6 hours of treatment with compound (I-1), the culture medium was removed and replaced with fresh medium for 72 hours and the number of living cells was then measured by using the reagent “CellTiter-Blue™”.

[2] = system: human endothelial cells (EAhy926); experiment: Cytotoxicity on human endothelial cells; type: cell-based; conditions: EAhy926, 1 hour, 3 hours or 6 hours of treatment, dose of 10 nM
Experimental: as §1, §2, §3

[3] = system: human endothelial cells (EAhy926); experiment: Formation of vascular tubes on Matrigel; type: cell-based; conditions: EAhy926, treatment of 3 hours, 10 nM
Experimental: In order to know whether the compound (I-1) perturbs the spatial organization of endothelial cells in structures similar to vascular capillaries, human endothelial cells (EAhy926) were treated immediately after cultivation on Matrigel® or after 24 hours of cultivation, in order to allow them to form vascular tubes.
In order to evaluate the antivascular activity of the compound (I-1), the EAhy926 cells were cultivated in 96-well culture plates covered beforehand with an extract of extracellular matrix (Matrigel™, BD Biosciences, Le Pont-de-Claix, France) in which they spontaneously form capillary tubes.
First of all, we measured the capacity of the compound (I-1) of inhibiting the formation of the capillary network. Matrigel™ is deposited in 96-well culture plates in an amount of 70 μL/well and left to incubate at 37° C. for 45 minutes in order to allow its polymerization. 15,000 cells suspended in 150 μL of culture medium are sown per well in each of the wells containing Matrigel™ in the absence or in the presence of different concentrations of the compound (I-1), with 3 wells per concentration. After 1 hour, 3 hours and 6 hours of incubation at 37° C., the cells are observed and photographed by means of an optical microscope of the TE2000 type (Nikon, France), equipped with a camera. […]

C=C(c1ccc(OC)c(O)c1)c1cc(OC)c(OC)c(OC)c1 [(I-1)]
IC50 (B16F10): 2 nM
IC50 at 72 h [1]: 2 nM
Cytotoxic activity on endothelial cells, short treatment [2]: does not exhibit any cytotoxic activity
Number of vascular tubes on Matrigel [3]: very significant decrease in the number of vascular tubes
